Laboratory results as given in patent US20120178786A9, “Use of tetramic acid derivatives for controlling pests by drenching, drip application, or dip application” (priority 2006, published 2012).

Experiments:
Type in all cases: in vivo
[1] = system: Trialeurodes vaporarium (TRIAVA); assay: Example 10: drip application to tomato plants on rock wool, Abbott efficacy; conditions: three treatments
Description: In each case 12 tomato plants cv. “Briljant” on rock wool are treated, in four replications, with a drip application against Trialeurodes vaporarium (TRIAVA) with an active substance solution containing the active substance I-4 (cis isomer, formulation: 100 OD) in comparison with the commercial standard imidacloprid (70 WG) at the application rate stated. The greenhouse temperature is 20° C. Three treatments are carried out at intervals of seven and fourteen days. The test is evaluated 14, 21, 28, 36 and 43 days after the 1st treatment by determining the efficacy with the aid of Abbott's formula.

[2] = system: citrus mealybug Pseudococcus citri (PSECCI); assay: Example 12: drench of Coleus plants, Abbott efficacy; conditions: 240 SC
Description: Coleus plants (approximate height 29 cm) in 6-inch pots which have been infected approximately 4 weeks before the treatment with citrus mealybug Pseudococcus citri (PSECCI) are drenched, in three replications, with an active substance solution containing the active substance I-4 (cis isomer, formulation: 240 SC) and, by way of comparison, with the commercial standard imidacloprid (240 SC) at the application rate stated. The greenhouse temperature is 29° C. The test is evaluated 7, 14, 21 and 28 days after the treatment by determining the efficacy with the aid of Abbott's formula.

[3] = system: Thrips palmi; assay: Example 7: drench of cucumber plots, Abbott efficacy; conditions: 20 mg active substance/plant, two applications at 10-day interval, I-4 240 SC, imidacloprid 100 SL
Description: Plots approximately 5 m^2 in size and containing cucumber plants are drenched, in three replications, against Thrips palmi with an active substance solution containing the active substance I-4 (cis isomer, formulation: 240 SC) and, by way of comparison, with the standard imidacloprid (100 SL) at the application rate stated, corresponding to an approximate water application rate of 300 l/ha. Two applications are effected at a 10-day interval. The test is evaluated in each case 9 days after the first treatment and 7 and 13 days after the second treatment by determining the efficacy with the aid of Abbott's formula.

[4] = system: Tetranychus urticae (TETRUR); assay: Example 5: drench of gardenia plants, Henderson-Tilton efficacy against nymphs; conditions: 240 SC
Description: Gardenia plants cv. “Cape jasmine” in 6-inch pots which had been infected with Tetranychus urticae (TETRUR) two weeks before the beginning of the experiment are drenched, in three replications, with in each case 100 ml of active substance solution containing the active substance I-4 (cis isomer, formulation: 240 SC) and, by way of comparison, with the commercial standard imidacloprid (240 SC) at the application rate stated. The greenhouse temperature is 25-30° C. The test is evaluated 3, 15 and 22 days after the treatment by determining the activity against nymphs on the leaves with the aid of the Henderson-Tilton method.

[5] = system: Bemisia sp.; assay: Example 15: drench of bell pepper plots, kill rate of larvae on the leaves
Description: Plots approximately 2×5 m in size which contain bell pepper plants are treated, in three replications, against Bemisia sp. The active substance example (I-4) cis isomer (240 SC) is drenched in an active substance solution at the application rate stated. The water application rate is 700 l/ha. Three treatments are carried out at intervals of 7 and 14 days. The test is evaluated in each case 7, 14, 21 and 28 days after the 3rd treatment by scoring the kill rate of the larvae on the leaves.

[6] = system: Madeira mealybug (Phenacoccus madeirensis); assay: Example 13: drench of Coleus plants, Abbott efficacy; conditions: 12 mg active substance/1 potting compost, 240 SC
Description: Coleus plants (approximate height 29 cm) in 6-inch pots which have been infected approximately 4 weeks before the beginning of the experiment with Madeira mealybug (Phenacoccus madeirensis) are drenched, in three replications, with an active substance solution containing the active substance I-4 (cis isomer, formulation: 240 SC) and, by way of comparison, with the commercial standard imidacloprid (240 SC) at the application rate stated. The greenhouse temperature is 29° C. The test is evaluated 7, 14, 21 and 28 days after the treatment by determining the efficacy with the aid of Abbott's formula.

[7] = system: Coccus viridis; assay: Example 11: drench of gardenia plants, Henderson-Tilton efficacy against nymphs; conditions: 240 SC
Description: Gardenia plants cv. […] The greenhouse temperature is 27° C. The test is evaluated 7, 15, 21 and 35 days after the treatment by determining the activity against nymphs on the leaves with the aid of the Henderson-Tilton method.

[8] = system: Frankliniella occidentalis (FRANOC); assay: Example 6: drench of verbena plants, Henderson-Tilton efficacy against nymphs; conditions: 12 mg active substance/1 potting compost, 240 SC
Description: Verbena plants (approximate height 13 cm) in 6-inch-pots which are infected with Frankliniella occidentalis (FRANOC) are drenched, in four replications, with an active substance solution containing the active substance I-4 (cis isomer, formulation: 240 SC) and, by way of comparison, with the commercial standard imidacloprid (240 SC) at the application rate stated. The greenhouse temperature is 27-33° C. The test is evaluated 7, 14, 21 and 28 days after the treatment by determining the activity against nymphs on the leaves with the aid of the Henderson-Tilton method.

[9] = system: Trialeurodes vaporarium (TRIAVA); assay: Example 9: drench of courgette plots, Abbott efficacy; conditions: four treatments of 10 mg active substance/plant at 10-day intervals, I-4 240 SC, imidacloprid 200 SL
Description: Plots approximately 12 m^2 in size and containing courgette plants (47 days after sowing) are drenched, in three replications, against Trialeurodes vaporarium (TRIAVA) with 100 ml of an active substance solution per plant, containing the active substance I-4 (cis isomer, formulation: 240 SC) and, by way of comparison, with the standard imidacloprid (200 SL) at the application rate stated. Four applications are effected at 10-day intervals. The test is evaluated 21, 31, 38 and 45 days after the 1st treatment by determining the efficacy with the aid of Abbott's formula.

[10] = 7 d after treatment, 12 mg active substance/1 potting compost
[11] = 21 d after treatment, 12 mg active substance/1 potting compost
[12] = 7 d after treatment, 24 mg active substance/1 potting compost
[13] = 21 d after treatment, 24 mg active substance/1 potting compost

Question: Which results are given for `O=[N+]([O-])NC1=NCCN1Cc1ccc(Cl)nc1` [Imidacloprid, imidacloprid, reference compound]?
Answer: Abbott efficacy (%) against TRIAVA ([1]; 14 d after 1st treatment, 9.8 mg active substance/plant, 70 WG): 28.4%; Abbott efficacy (%) against TRIAVA ([1]; 21 d after 1st treatment, 9.8 mg active substance/plant, 70 WG): 55.3%; Abbott efficacy (%) against TRIAVA ([1]; 28 d after 1st treatment, 9.8 mg active substance/plant, 70 WG): 89.1%; Abbott efficacy (%) against TRIAVA ([1]; 36 d after 1st treatment, 9.8 mg active substance/plant, 70 WG): 92.0%; Abbott efficacy (%) against TRIAVA ([1]; 43 d after 1st treatment, 9.8 mg active substance/plant, 70 WG): 89.8%; Abbott efficacy (%) against PSECCI [2, 10]: 30%; Abbott efficacy (%) against PSECCI ([2]; 14 d after treatment, 12 mg active substance/1 potting compost): 35%; Abbott efficacy (%) against PSECCI [2, 11]: 19%; Abbott efficacy (%) against PSECCI ([2]; 28 d after treatment, 12 mg active substance/1 potting compost): 16%; Abbott efficacy (%) against THRIPL ([3]; 7 d after 2nd treatm.): 68.8%; Abbott efficacy (%) against THRIPL ([3]; 9 d after 1st treatm.): 73.7%; Abbott efficacy (%) against THRIPL ([3]; 13 d after 2nd treatm.): 44.0%; Henderson-Tilton efficacy (%) against TETRUR ([4]; 3 d after treatment, 38.4 mg active substance/1 potting compost): 72.7%; Henderson-Tilton efficacy (%) against TETRUR ([4]; 15 d after treatment, 38.4 mg active substance/1 potting compost): 82.2%; Henderson-Tilton efficacy (%) against TETRUR ([4]; 22 d after treatment, 38.4 mg active substance/1 potting compost): 0%; Efficacy (% Abbott) against Bemisia sp. ([5]; 7 d after 3rd treatm., 10.5 mg/plant): 96.6 % Abbott; Efficacy (% Abbott) against Bemisia sp. ([5]; 14 d after 3rd treatm., 10.5 mg/plant): 80.6 % Abbott; Efficacy (% Abbott) against Bemisia sp. ([5]; 21 d after 3rd treatm., 10.5 mg/plant): 84.6 % Abbott; Efficacy (% Abbott) against Bemisia sp. ([5]; 28 d after 3rd treatm., 10.5 mg/plant): 85.7 % Abbott; Abbott efficacy (%) against Phenacoccus madeirensis ([6]; 7 d after treatment): 92%; Abbott efficacy (%) against Phenacoccus madeirensis ([6]; 14 d after treatment): 83%; Abbott efficacy (%) against Phenacoccus madeirensis ([6]; 21 d after treatment): 30%; Abbott efficacy (%) against Phenacoccus madeirensis ([6]; 28 d after treatment): 44%; Henderson-Tilton efficacy (%) against Coccus viridis [7, 10]: 45%; Henderson-Tilton efficacy (%) against Coccus viridis ([7]; 15 d after treatment, 12 mg active substance/1 potting compost): 55%; Henderson-Tilton efficacy (%) against Coccus viridis [7, 11]: 66%; Henderson-Tilton efficacy (%) against Coccus viridis ([7]; 35 d after treatment, 12 mg active substance/1 potting compost): 100%; Henderson-Tilton efficacy (%) against FRANOC ([8]; 7 d after treatment): 100%; Henderson-Tilton efficacy (%) against FRANOC ([8]; 14 d after treatment): 100%; Henderson-Tilton efficacy (%) against FRANOC ([8]; 21 d after treatment): 49%; Henderson-Tilton efficacy (%) against FRANOC ([8]; 28 d after treatment): 100%; Abbott efficacy (%) against TRIAVA ([9]; 21 d after 1st treatment): 88.1%; Abbott efficacy (%) against TRIAVA ([9]; 31 d after 1st treatment): 74.0%; Abbott efficacy (%) against TRIAVA ([9]; 38 d after 1st treatment): 77.2%; Abbott efficacy (%) against TRIAVA ([9]; 45 d after 1st treatment): 63.7%

Question: What does the source list for `CCOC(=O)OC1=C(c2cc(C)ccc2C)C(=O)N[C@]12CC[C@@H](OC)CC2` [Example I-4]?
Answer: Abbott efficacy (%) against TRIAVA ([1]; 14 d after 1st treatment, 20 mg active substance/plant, 100 OD): 26.8%; Abbott efficacy (%) against TRIAVA ([1]; 21 d after 1st treatment, 20 mg active substance/plant, 100 OD): 66.3%; Abbott efficacy (%) against TRIAVA ([1]; 28 d after 1st treatment, 20 mg active substance/plant, 100 OD): 90.4%; Abbott efficacy (%) against TRIAVA ([1]; 36 d after 1st treatment, 20 mg active substance/plant, 100 OD): 95.6%; Abbott efficacy (%) against TRIAVA ([1]; 43 d after 1st treatment, 20 mg active substance/plant, 100 OD): 97.9%; Abbott efficacy (%) against PSECCI [2, 12]: 63%; Abbott efficacy (%) against PSECCI ([2]; 14 d after treatment, 24 mg active substance/1 potting compost): 91%; Abbott efficacy (%) against PSECCI [2, 13]: 94%; Abbott efficacy (%) against PSECCI ([2]; 28 d after treatment, 24 mg active substance/1 potting compost): 93%; Abbott efficacy (%) against THRIPL ([3]; 7 d after 2nd treatm.): 64.1%; Abbott efficacy (%) against THRIPL ([3]; 9 d after 1st treatm.): 66.3%; Abbott efficacy (%) against THRIPL ([3]; 13 d after 2nd treatm.): 80.0%; Henderson-Tilton efficacy (%) against TETRUR ([4]; 3 d after treatment, 77 mg active substance/1 potting compost): 39.0%; Henderson-Tilton efficacy (%) against TETRUR ([4]; 15 d after treatment, 77 mg active substance/1 potting compost): 89.1%; Henderson-Tilton efficacy (%) against TETRUR ([4]; 22 d after treatment, 77 mg active substance/1 potting compost): 100%; Efficacy (% Abbott) against Bemisia sp. ([5]; 7 d after 3rd treatm., 40 + 5 + 5 mg/plant, 240 SC): 86.2 % Abbott; Efficacy (% Abbott) against Bemisia sp. ([5]; 14 d after 3rd treatm., 40 + 5 + 5 mg/plant, 240 SC): 94.4 % Abbott; Efficacy (% Abbott) against Bemisia sp. ([5]; 21 d after 3rd treatm., 40 + 5 + 5 mg/plant, 240 SC): 94.9 % Abbott; Efficacy (% Abbott) against Bemisia sp. ([5]; 28 d after 3rd treatm., 40 + 5 + 5 mg/plant, 240 SC): 90.5 % Abbott; Abbott efficacy (%) against Phenacoccus madeirensis ([6]; 7 d after treatment): 84%; Abbott efficacy (%) against Phenacoccus madeirensis ([6]; 14 d after treatment): 89%; Abbott efficacy (%) against Phenacoccus madeirensis ([6]; 21 d after treatment): 99%; Abbott efficacy (%) against Phenacoccus madeirensis ([6]; 28 d after treatment): 98%; Henderson-Tilton efficacy (%) against Coccus viridis [7, 12]: 35%; Henderson-Tilton efficacy (%) against Coccus viridis ([7]; 15 d after treatment, 24 mg active substance/1 potting compost): 45%; Henderson-Tilton efficacy (%) against Coccus viridis [7, 13]: 69%; Henderson-Tilton efficacy (%) against Coccus viridis ([7]; 35 d after treatment, 24 mg active substance/1 potting compost): 100%; Henderson-Tilton efficacy (%) against FRANOC ([8]; 7 d after treatment): 100%; Henderson-Tilton efficacy (%) against FRANOC ([8]; 14 d after treatment): 100%; Henderson-Tilton efficacy (%) against FRANOC ([8]; 21 d after treatment): 90%; Henderson-Tilton efficacy (%) against FRANOC ([8]; 28 d after treatment): 100%; Abbott efficacy (%) against TRIAVA ([9]; 21 d after 1st treatment): 57.5%; Abbott efficacy (%) against TRIAVA ([9]; 31 d after 1st treatment): 85.9%; Abbott efficacy (%) against TRIAVA ([9]; 38 d after 1st treatment): 88.5%; Abbott efficacy (%) against TRIAVA ([9]; 45 d after 1st treatment): 85.7%
